In ChEMBL document CHEMBL4610120, “New Broad-Spectrum Antibiotics Containing a Pyrrolobenzodiazepine Ring with Activity against Multidrug-Resistant Gram-Negative Bacteria” (J Med Chem, 2020):
In brackets after ≈: the same amount, converted by molar mass.

system: not listed separately; experiment: Selectivity ratio of cytotoxicity against human WI38 cells to MIC for Pseudomonas aeruginosa PAO1; type: toxicity, cell-based; settings: not given

Row | Structure (SMILES) | selectivity ratio
1 | COc1cc2c(cc1OCCCC(=O)Nc1cc(C(=O)Nc3ccc(-c4cc(C(=O)N(C)C)n(C)c4)cc3)n(C)c1)N=C[C@@H]1CCCN1C2=O | 10

system: Klebsiella pneumoniae; experiment: Antimicrobial activity against Klebsiella pneumoniae M6 by microdilution broth method; type: functional; settings: not given

Row | Structure (SMILES) | MIC
2 | COc1cc2c(cc1OCCCC(=O)Nc1cc(C(=O)Nc3ccc(-c4cc(C(=O)N(C)C)n(C)c4)cc3)n(C)c1)N=C[C@@H]1CCCN1C2=O | 2 µg/mL (≈ 2.94 µM)

system: Enterococcus faecalis; experiment: Antibacterial activity against vancomycin sensitive Enterococcus faecalis NCTC 775 by microdilution broth method; type: functional; settings: not given

Row | Structure (SMILES) | MIC
3 | COc1cc2c(cc1OCCCC(=O)Nc1cc(C(=O)Nc3ccc(-c4cc(C(=O)N(C)C)n(C)c4)cc3)n(C)c1)N=C[C@@H]1CCCN1C2=O | ≤ 0.125 µg/mL

system: Enterococcus faecium; experiment: Antibacterial activity against vancomycin resistant Enterococcus faecium NCTC 12204 by microdilution broth method; type: functional; settings: not given

Row | Structure (SMILES) | MIC
4 | COc1cc2c(cc1OCCCC(=O)Nc1cc(C(=O)Nc3ccc(-c4cc(C(=O)N(C)C)n(C)c4)cc3)n(C)c1)N=C[C@@H]1CCCN1C2=O | ≤ 0.125 µg/mL

system: Staphylococcus aureus; experiment: Antibacterial activity against methicillin resistant Staphylococcus aureus NCTC 13616 by microdilution broth method; type: functional; settings: not given

Row | Structure (SMILES) | MIC
5 | COc1cc2c(cc1OCCCC(=O)Nc1cc(C(=O)Nc3ccc(-c4cc(C(=O)N(C)C)n(C)c4)cc3)n(C)c1)N=C[C@@H]1CCCN1C2=O | ≤ 0.125 µg/mL

system: DNA; experiment: Stabilization of 5'-FAM-TAT-ATA-TAG-ATA-TTT-TTT-TAT-CTA-TAT-ATA-3'-TAMRA DNA (unknown origin) assessed as reduction in change in melting temperature at 1:1 to 5:1 ligand to DNA ratio measured after 3 hrs by FRET-based assay relative to control; type: ADME, nucleic-acid assay; settings: not given

Row | Structure (SMILES) | fold change (FC)
6 | COc1cc2c(cc1OCCCC(=O)Nc1cc(C(=O)Nc3ccc(-c4cc(C(=O)N(C)C)n(C)c4)cc3)n(C)c1)N=C[C@@H]1CCCN1C2=O | 3 to 4

system: Acinetobacter baumannii; experiment: Antimicrobial activity against Acinetobacter baumannii ATCC 17978 by microdilution broth method; type: functional; settings: not given

Row | Structure (SMILES) | MIC
7 | COc1cc2c(cc1OCCCC(=O)Nc1cc(C(=O)Nc3ccc(-c4cc(C(=O)N(C)C)n(C)c4)cc3)n(C)c1)N=C[C@@H]1CCCN1C2=O | 4 µg/mL (≈ 5.88 µM)

system: not listed separately; experiment: Selectivity ratio of cytotoxicity against human WI38 cells to MIC for multidrug-resistant Pseudomonas aeruginosa NCTC 13437; type: toxicity, cell-based; settings: not given

Row | Structure (SMILES) | selectivity ratio
8 | COc1cc2c(cc1OCCCC(=O)Nc1cc(C(=O)Nc3ccc(-c4cc(C(=O)N(C)C)n(C)c4)cc3)n(C)c1)N=C[C@@H]1CCCN1C2=O | 10

system: not listed separately; experiment: Selectivity ratio of cytotoxicity against human WI38 cells to MIC for multidrug-resistant Acinetobacter baumannii AYE; type: toxicity, cell-based; settings: not given

Row | Structure (SMILES) | selectivity ratio
9 | COc1cc2c(cc1OCCCC(=O)Nc1cc(C(=O)Nc3ccc(-c4cc(C(=O)N(C)C)n(C)c4)cc3)n(C)c1)N=C[C@@H]1CCCN1C2=O | 10

system: not listed separately; experiment: Selectivity ratio of cytotoxicity against human WI38 cells to MIC for vancomycin resistant Enterococcus faecalis NCTC 12201; type: toxicity, cell-based; settings: not given

Row | Structure (SMILES) | selectivity ratio
10 | COc1cc2c(cc1OCCCC(=O)Nc1cc(C(=O)Nc3ccc(-c4cc(C(=O)N(C)C)n(C)c4)cc3)n(C)c1)N=C[C@@H]1CCCN1C2=O | 100

system: not listed separately; experiment: Cytotoxicity against human WI38 cells assessed as cell viability at 20 uM measured after 24 hrs by MTT assay relative to control; type: cell-based, WI-38; settings: read-out: Activity

Row | Structure (SMILES) | viability at 24 h, 20 µM
11 | COc1cc2c(cc1OCCCC(=O)Nc1cc(C(=O)Nc3ccc(-c4cc(C(=O)N(C)C)n(C)c4)cc3)n(C)c1)N=C[C@@H]1CCCN1C2=O | > 85%

system: not listed separately; experiment: Selectivity ratio of cytotoxicity against human WI38 cells to MIC for methicillin resistant Staphylococcus aureus NCTC 13277; type: toxicity, cell-based; settings: not given

Row | Structure (SMILES) | selectivity ratio
12 | COc1cc2c(cc1OCCCC(=O)Nc1cc(C(=O)Nc3ccc(-c4cc(C(=O)N(C)C)n(C)c4)cc3)n(C)c1)N=C[C@@H]1CCCN1C2=O | 100

system: not listed separately; experiment: Selectivity ratio of cytotoxicity against human WI38 cells to MIC for methicillin sensitive Staphylococcus aureus NCTC 6571; type: toxicity, cell-based; settings: not given

Row | Structure (SMILES) | selectivity ratio
13 | COc1cc2c(cc1OCCCC(=O)Nc1cc(C(=O)Nc3ccc(-c4cc(C(=O)N(C)C)n(C)c4)cc3)n(C)c1)N=C[C@@H]1CCCN1C2=O | 100

system: not listed separately; experiment: Selectivity ratio of cytotoxicity against human WI38 cells to MIC for vancomycin sensitive Enterococcus faecalis NCTC 775; type: toxicity, cell-based; settings: not given

Row | Structure (SMILES) | selectivity ratio
14 | COc1cc2c(cc1OCCCC(=O)Nc1cc(C(=O)Nc3ccc(-c4cc(C(=O)N(C)C)n(C)c4)cc3)n(C)c1)N=C[C@@H]1CCCN1C2=O | 100

system: Enterococcus faecalis; experiment: Antibacterial activity against vancomycin resistant Enterococcus faecalis NCTC 12201 by microdilution broth method; type: functional; settings: not given

Row | Structure (SMILES) | MIC
15 | COc1cc2c(cc1OCCCC(=O)Nc1cc(C(=O)Nc3ccc(-c4cc(C(=O)N(C)C)n(C)c4)cc3)n(C)c1)N=C[C@@H]1CCCN1C2=O | ≤ 0.125 µg/mL

system: DNA; experiment: Stabilization of 5'-FAM-TAT-AGA-TAT-AGA-TAT-TTT-ATA-TCT-ATA-TCT-ATA-3'-TAMRA DNA (unknown origin) assessed as reduction in change in melting temperature at 1:1 to 5:1 ligand to DNA ratio measured after 3 hrs by FRET-based assay relative to control; type: ADME, nucleic-acid assay; settings: not given

Row | Structure (SMILES) | fold change (FC)
16 | COc1cc2c(cc1OCCCC(=O)Nc1cc(C(=O)Nc3ccc(-c4cc(C(=O)N(C)C)n(C)c4)cc3)n(C)c1)N=C[C@@H]1CCCN1C2=O | 3 to 4

system: not listed separately; experiment: Selectivity ratio of cytotoxicity against human WI38 cells to MIC for Klebsiella pneumoniae M6; type: toxicity, cell-based; settings: not given

Row | Structure (SMILES) | selectivity ratio
17 | COc1cc2c(cc1OCCCC(=O)Nc1cc(C(=O)Nc3ccc(-c4cc(C(=O)N(C)C)n(C)c4)cc3)n(C)c1)N=C[C@@H]1CCCN1C2=O | 10

system: not listed separately; experiment: Selectivity ratio of cytotoxicity against human WI38 cells to MIC for Acinetobacter baumannii ATCC 17978; type: toxicity, cell-based; settings: not given

Row | Structure (SMILES) | selectivity ratio
18 | COc1cc2c(cc1OCCCC(=O)Nc1cc(C(=O)Nc3ccc(-c4cc(C(=O)N(C)C)n(C)c4)cc3)n(C)c1)N=C[C@@H]1CCCN1C2=O | 10

system: not listed separately; experiment: Selectivity ratio of cytotoxicity against human WI38 cells to MIC for vancomycin resistant Enterococcus faecium NCTC 12204; type: toxicity, cell-based; settings: not given

Row | Structure (SMILES) | selectivity ratio
19 | COc1cc2c(cc1OCCCC(=O)Nc1cc(C(=O)Nc3ccc(-c4cc(C(=O)N(C)C)n(C)c4)cc3)n(C)c1)N=C[C@@H]1CCCN1C2=O | 100

system: Pseudomonas aeruginosa; experiment: Antimicrobial activity against Pseudomonas aeruginosa PAO1 by microdilution broth method; type: functional; settings: not given

Row | Structure (SMILES) | MIC
20 | COc1cc2c(cc1OCCCC(=O)Nc1cc(C(=O)Nc3ccc(-c4cc(C(=O)N(C)C)n(C)c4)cc3)n(C)c1)N=C[C@@H]1CCCN1C2=O | 128 µg/mL (≈ 188 µM)

system: Staphylococcus aureus; experiment: Antibacterial activity against methicillin resistant Staphylococcus aureus NCTC 13277 by microdilution broth method; type: functional; settings: not given

Row | Structure (SMILES) | MIC
21 | COc1cc2c(cc1OCCCC(=O)Nc1cc(C(=O)Nc3ccc(-c4cc(C(=O)N(C)C)n(C)c4)cc3)n(C)c1)N=C[C@@H]1CCCN1C2=O | ≤ 0.125 µg/mL

system: not listed separately; experiment: Selectivity ratio of cytotoxicity against human WI38 cells to MIC for methicillin resistant Staphylococcus aureus NCTC 13616; type: toxicity, cell-based; settings: not given

Row | Structure (SMILES) | selectivity ratio
22 | COc1cc2c(cc1OCCCC(=O)Nc1cc(C(=O)Nc3ccc(-c4cc(C(=O)N(C)C)n(C)c4)cc3)n(C)c1)N=C[C@@H]1CCCN1C2=O | 100

system: Acinetobacter baumannii; experiment: Antimicrobial activity against multidrug-resistant Acinetobacter baumannii AYE by microdilution broth method; type: functional; settings: not given

Row | Structure (SMILES) | MIC
23 | COc1cc2c(cc1OCCCC(=O)Nc1cc(C(=O)Nc3ccc(-c4cc(C(=O)N(C)C)n(C)c4)cc3)n(C)c1)N=C[C@@H]1CCCN1C2=O | 4 µg/mL (≈ 5.88 µM)

system: Klebsiella pneumoniae; experiment: Antimicrobial activity against multidrug-resistant Klebsiella pneumoniae NCTC 13368 by microdilution broth method; type: functional; settings: not given

Row | Structure (SMILES) | MIC
24 | COc1cc2c(cc1OCCCC(=O)Nc1cc(C(=O)Nc3ccc(-c4cc(C(=O)N(C)C)n(C)c4)cc3)n(C)c1)N=C[C@@H]1CCCN1C2=O | 8 µg/mL (≈ 11.8 µM)

system: Pseudomonas aeruginosa; experiment: Antimicrobial activity against multidrug-resistant Pseudomonas aeruginosa NCTC 13437 by microdilution broth method; type: functional; settings: not given

Row | Structure (SMILES) | MIC
25 | COc1cc2c(cc1OCCCC(=O)Nc1cc(C(=O)Nc3ccc(-c4cc(C(=O)N(C)C)n(C)c4)cc3)n(C)c1)N=C[C@@H]1CCCN1C2=O | > 128 µg/mL

system: Staphylococcus aureus; experiment: Antibacterial activity against methicillin sensitive Staphylococcus aureus NCTC 6571 by microdilution broth method; type: functional; settings: not given

Row | Structure (SMILES) | MIC
26 | COc1cc2c(cc1OCCCC(=O)Nc1cc(C(=O)Nc3ccc(-c4cc(C(=O)N(C)C)n(C)c4)cc3)n(C)c1)N=C[C@@H]1CCCN1C2=O | ≤ 0.125 µg/mL

system: not listed separately; experiment: Selectivity ratio of cytotoxicity against human WI38 cells to MIC for multidrug-resistant Klebsiella pneumoniae NCTC 13368; type: toxicity, cell-based; settings: not given

Row | Structure (SMILES) | selectivity ratio
27 | COc1cc2c(cc1OCCCC(=O)Nc1cc(C(=O)Nc3ccc(-c4cc(C(=O)N(C)C)n(C)c4)cc3)n(C)c1)N=C[C@@H]1CCCN1C2=O | 10
